In brackets after ≈: the same amount, converted by molar mass.

The first data set relates to Staphylococcus aureus. Nature of the data set: Antibacterial activity against methicillin-resistant Staphylococcus aureus ATCC 33591. In kind it is functional.
Conditions: not given
One may read the MIC as the least concentration at which growth counts as inhibited. Take `CCC(c1ccc(O)cc1)C(CC)c1ccc(O)cc1` (configuration not stated): the lowest concentration to inhibit growth (MIC) was 16 µM (≈ 4.33 µg/mL).

The molecule `Oc1c(Cl)cc(Cl)cc1Sc1cc(Cl)cc(Cl)c1O` [BITHIONOL] displayed an MIC of 0.5 µM (≈ 0.178 µg/mL).

`CNC(=O)c1cc(Oc2ccc(NC(=O)Nc3ccc(Cl)c(C(F)(F)F)c3)cc2)ccn1` [SORAFENIB] gave an MIC of 3 µM (≈ 1.39 µg/mL).

On to `CNC(=O)c1cc(Oc2ccc(NC(=O)Nc3ccc(Cl)c(C)c3)cc2)ccn1`, for which the minimum inhibitory concentration (MIC) was over 100 µM.

With `O=C(Nc1ccc2c(c1)OC(F)(F)O2)Nc1ccc(Cl)c(C(F)(F)F)c1`, the MIC came out at 0.3 µM (≈ 0.118 µg/mL).

Molecule `CNC(=O)c1cc(Oc2ccc(NC(=O)Nc3cccc(C(F)(F)F)c3)cc2)ccn1` came in with a minimal inhibitory concentration (MIC) of over 100 µM.

`CNC(=O)c1cc(Oc2ccc(NC(=O)Nc3ccccc3)cc2)ccn1` registered a minimal inhibitory concentration (MIC) of over 100 µM.

Take `O=C(O)c1c(Sc2ccccc2)c2cc(Cl)ccc2n1Cc1ccc(Cl)cc1`: the lowest concentration to inhibit growth (MIC) was 1 µM (≈ 0.428 µg/mL).

A further data set has as its system Staphylococcus aureus. As to the kind of experiment: Antibacterial activity against Staphylococcus aureus ATCC 25923 assessed as reduction in bacterial growth incubated for 24 hrs by broth micro-dilution method. In kind it is functional.
Conditions: not given
Regarding `C=C[C@]1(C)C[C@@H](OC(=O)CS[C@@H]2C[C@H]3CC[C@@H](C2)N3C)[C@]2(C)[C@H](C)CC[C@]3(CCC(=O)[C@H]32)[C@@H](C)[C@@H]1O` [RETAPAMULIN], the MIC was found to be 0.25 µg/mL (≈ 0.483 µM).

On to `C=C[C@]1(C)C[C@@H](OC(=O)CSCCN(CC)CC)[C@]2(C)[C@H](C)CC[C@]3(CCC(=O)[C@H]32)[C@@H](C)[C@@H]1O` [TIAMULIN], for which the MIC worked out at 0.25 µg/mL (≈ 0.506 µM).

As for `C=C[C@]1(C)C[C@@H](OC(=O)CSC(C)(C)CNC(=O)[C@H](N)C(C)C)[C@]2(C)[C@H](C)CC[C@]3(CCC(=O)[C@H]32)[C@@H](C)[C@@H]1O` [VALNEMULIN], the MIC worked out at 0.06 µg/mL (≈ 0.106 µM).

With `C=C[C@]1(C)C[C@@H](OC(=O)CS[C@@H]2CC[C@@H](N)C[C@H]2O)[C@]2(C)[C@H](C)CC[C@]3(CCC(=O)[C@H]32)[C@@H](C)[C@@H]1O` [LEFAMULIN], the minimal inhibitory concentration (MIC) turned out to be 0.12 µg/mL (≈ 0.236 µM).

Another data set has as its system Staphylococcus aureus. As to the kind of experiment: Antibacterial activity against methicillin-resistant Staphylococcus aureus ATCC 43300 assessed as reduction in bacterial growth incubated for 18 hrs by mueller hinton broth dilution method.
Conditions: not given
In kind it is functional. (Dilution methods test growth across graded concentrations, often in twofold steps.)
Take `O=C(O)c1ccc2cc(-c3ccc(O)c(C45CC6CC(CC(C6)C4)C5)c3)ccc2c1` [O-DEMETHYLATED ADAPALENE]: the MIC came out at 1 µg/mL (≈ 2.51 µM).

As to `CC[N+](CC)=c1sc2c(s1)C(c1ccc(F)cc1)Oc1ccc(C)cc1-2.F[B-](F)(F)F` (configuration not stated), the MIC is 16.6 µg/mL.

Consider `O=C(O)/C=C/c1ccc(-c2ccc(O)c(C34CC5CC(CC(C5)C3)C4)c2)cc1` [ADAROTENE], for which the MIC is 2 µg/mL (≈ 5.34 µM).

Regarding `OCc1ccc2cc(-c3ccc(O)c(C45CC6CC(CC(C6)C4)C5)c3)ccc2c1`, the MIC was 2 µg/mL (≈ 5.2 µM).

Turning to `CC[N+](CC)=c1sc2c(s1)C(c1ccc(Br)cc1)Oc1ccc(C)cc1-2.F[B-](F)(F)F` (configuration not stated), the MIC was 1.95 µg/mL.

`CC[N+](CC)=c1sc2c(s1)C(c1ccc(Cl)cc1)Oc1ccc(C)cc1-2.F[B-](F)(F)F` (configuration not stated): the MIC was determined as 3.9 µg/mL.

The subject of another data set is Staphylococcus aureus. Nature of the data set: Antibacterial activity against […] Staphylococcus aureus ATCC 29213 assessed as reduction in bacterial growth incubated for 16 to 18 hrs by CLSI protocol based Muller Hinton broth assay. In kind it is functional. The settings on record: time 16-18 hrs.
Consider `C[C@@H]1[C@@H](O)[C@H](C)[C@]23CCC(=O)[C@H]2[C@@](C)([C@H](C)CC3)[C@@H]1OC(=O)CS[C@@H]1CC[C@@H](N)C[C@H]1O`, for which the MIC is over 32 µg/mL.

With `CC[C@H]1C[C@@H](OC(=O)CS[C@@H]2CC[C@@H](N)C[C@H]2O)[C@]2(C)[C@H](C)C[C@]3(CCC(=O)[C@H]32)[C@@H](C)[C@@H]1O`, the minimal inhibitory concentration (MIC) is over 16 µg/mL.

For `CC[C@@]1(C)C[C@@H](OC(=O)CSc2ccncc2)[C@]2(C)[C@H](C)CC[C@]3(CCC(=O)[C@H]32)[C@@H](C)[C@@H]1O`, the MIC came to 0.06 µg/mL (≈ 0.127 µM).

As for `C[C@@H]1CC[C@@]23CCC(=O)[C@H]2[C@]1(C)[C@H](OC(=O)CSc1ccncc1)CC(=O)[C@@H](O)[C@@H]3C`, the MIC is over 16 µg/mL.

A further data set concerns HepG2. Nature of the data set: Cytotoxicity against human HepG2 cells assessed as reduction in cell viability by measuring lethal concentration by SRB assay. In kind it is functional. The settings on record: read-out: LC50 (the source's name). On the technique in general: Sulforhodamine B stains cellular protein and so reports cell mass.
Consider `O=C(O)c1ccc2cc(-c3ccc(O)c(C45CC6CC(CC(C6)C4)C5)c3)ccc2c1` [O-DEMETHYLATED ADAPALENE], for which the CC50 was 5 µg/mL (≈ 12.5 µM).

With `OCc1ccc2cc(-c3ccc(O)c(C45CC6CC(CC(C6)C4)C5)c3)ccc2c1`, the CC50 was over 32 µg/mL.

The subject of a further data set is Staphylococcus aureus. As to the kind of experiment: Antibacterial activity against Staphylococcus aureus assessed as reduction in bacterial growth. In kind it is functional.
Conditions: not given
Turning to `Cn1cc(-c2ccc(Cn3cnc4c(N5CCNCC5)ncnc43)nc2)nn1`, the minimum inhibitory concentration (MIC) is 0.12 µg/mL (≈ 0.319 µM).

Turning to `Cn1cc(-c2ccc(Cn3cnc4c(N)ncnc43)cc2)nn1`, the MIC amounted to 16.6 µg/mL (≈ 54.3 µM).

Take `Cn1cc(-c2ccc(Cn3cnc4c(N5CCNCC5)ncnc43)cc2)nn1`: the MIC was found to be 0.25 µg/mL (≈ 0.666 µM).

System in the next data set: not listed separately
As to the kind of experiment: Solubility of compound.
Conditions: not given
In kind it is physicochemical.
As usually defined, the solubility is how much of the substance goes into solution per volume. `Cn1cc(-c2ccc(Cn3cnc4c(N5CCNCC5)ncnc43)nc2)nn1`: the solubility was found to be 114 µM (≈ 42.9 µg/mL).

Turning to `Cn1cc(-c2ccc(Cn3cnc4c(N5CCNCC5)ncnc43)cc2)nn1`, the solubility is 31 µM (≈ 11.6 µg/mL).

In another data set the test system is Staphylococcus aureus. Nature of the data set: Antibacterial activity against methicllin-resistant Staphylococcus aureus. In kind it is functional.
Conditions: not given
For the molecule `CC(C)=CCCC(O)COc1cccc2c1c1ccccc1n2C` (configuration not stated), the MIC is over 50 µg/mL.

For the molecule `CC(C)=CCCC(O)COc1cccc2c1c1ccccc1n2CC=C(C)C` (configuration not stated), it took 3.13 µg/mL (≈ 8.3 µM) to inhibit growth (MIC).

In the case of `CCCCCCCn1c2ccccc2c2c(OCC(O)CCC=C(C)C)cccc21` (configuration not stated), it took 12.5 µg/mL (≈ 30.7 µM) to inhibit growth (MIC).

With `CCCCCn1c2ccccc2c2c(OCC(O)CCC=C(C)C)cccc21` (configuration not stated), the MIC amounted to 6.25 µg/mL (≈ 16.5 µM).

Take `CCCn1c2ccccc2c2c(OCC(O)CCC=C(C)C)cccc21` (configuration not stated): the minimum inhibitory concentration (MIC) amounted to 50 µg/mL (≈ 142 µM).

With `CCCCCCCCCn1c2ccccc2c2c(OCC(O)CCC=C(C)C)cccc21` (configuration not stated), it took 6.25 µg/mL (≈ 14.3 µM) to inhibit growth (MIC).

For the next data set, the system named is Staphylococcus aureus. Nature of the data set: Antibacterial activity against methicillin-resistant Staphylococcus aureus ATCC 33591 assessed as inhibition of bacterial growth incubated for 24 hrs by Mueller-Hinton broth assay. In kind it is functional.
Conditions: not given
Turning to `C=CCc1ccc(O)c(-c2ccc(O)c(CC=C)c2)c1` [HONOKIOL], the MIC was found to be 10 µg/mL (≈ 37.5 µM).

Regarding `C=CCc1ccc(O)c(-c2cc(CC=C)ccc2O)c1` [MAGNOLOL], the minimal inhibitory concentration (MIC) is 20 µg/mL (≈ 75.1 µM).

The values above are taken from ChEMBL document CHEMBL6134881, “From Natural Products to Small Molecules: Recent Advancements in Anti-MRSA Therapeutics” (ACS Med Chem Lett, 2025).
